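These data come from cells grown in 96-well plates and exposed to compound for 48 hours at five concentrations. Abbreviation: GI50, concentration required for 50% inhibition of growth.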 Activity calls are given as the source filed them. Cut-off read from the data, not from the text of the source: active = GI50 up to about 1.1 µM and inactive = higher.
What was measured:
Test in all cases: DTP human tumour cell line panel, 48 h
786-0 = system: 786-0
A498 = system: A498
A549 = system: A549
ACHN = system: ACHN
CAKI-1 = system: CAKI-1
CCRF-CEM = system: CCRF-CEM
COLO 205 = system: COLO 205
DLD-1 = system: DLD-1
DMS-114 = system: DMS-114
DMS-273 = system: DMS-273
EKVX = system: EKVX
HCC 2998 = system: HCC 2998
HCT-116 = system: HCT-116
HCT-15 = system: HCT-15
HL-60 = system: HL-60
HOP-62 = system: HOP-62
HT-29 = system: HT-29
IGROV-1 = system: IGROV-1
K562 = system: K562
KM-20L2 = system: KM-20L2
KM12 = system: KM12
LOX IMVI = system: LOX IMVI
LXFL 529 = system: LXFL 529
M14 = system: M14
MOLT-4 = system: MOLT-4
Malme-3M = system: Malme-3M
NCI-H226 = system: NCI-H226
NCI-H23 = system: NCI-H23
NCI-H460 = system: NCI-H460
NCI-H522 = system: NCI-H522
OVCAR-3 = system: OVCAR-3
OVCAR-5 = system: OVCAR-5
OVCAR-8 = system: OVCAR-8
RPMI-8226 = system: RPMI-8226
RXF 393 = system: RXF 393
SF-268 = system: SF-268
SF-295 = system: SF-295
SF-539 = system: SF-539
SK-MEL-28 = system: SK-MEL-28
SK-MEL-2 = system: SK-MEL-2
SK-MEL-5 = system: SK-MEL-5
SK-OV-3 = system: SK-OV-3
SN12C = system: SN12C
SNB-19 = system: SNB-19
SNB-75 = system: SNB-75
SNB-78 = system: SNB-78
SW-620 = system: SW-620
TK-10 = system: TK-10
U-251 = system: U-251
UACC-257 = system: UACC-257
UACC-62 = system: UACC-62
UO-31 = system: UO-31
XF498 = system: XF498
HOP-18 = system: HOP-18
OVCAR-4 = system: OVCAR-4
SR = system: SR

Cc1cc(N(CCC#N)S(=O)(=O)c2ccccc2)ccc1/C=C1N=C(/C=C/c2ccccc2)OC\1=O
GI50 (786-0): > 100 µM (inactive) | GI50 (A498): > 100 µM (inactive) | GI50 (A549): > 100 µM (inactive) | GI50 (ACHN): > 100 µM (inactive) | GI50 (CAKI-1): > 100 µM (inactive) | GI50 (CCRF-CEM): > 100 µM (inactive) | GI50 (COLO 205): > 100 µM (inactive) | GI50 (DLD-1): > 100 µM (inactive) | GI50 (DMS-114): 94.4 µM (inactive) | GI50 (DMS-273): > 100 µM (inactive) | GI50 (EKVX): > 100 µM (inactive) | GI50 (HCC 2998): > 100 µM (inactive) | GI50 (HCT-116): > 100 µM (inactive) | GI50 (HCT-15): > 100 µM | GI50 (HL-60): > 100 µM (inactive) | GI50 (HOP-62): > 100 µM (inactive) | GI50 (HT-29): > 100 µM (inactive) | GI50 (IGROV-1): > 100 µM (inactive) | GI50 (K562): 94.6 µM (inactive) | GI50 (KM-20L2): > 100 µM (inactive) | GI50 (KM12): > 100 µM (inactive) | GI50 (LOX IMVI): > 100 µM (inactive) | GI50 (LXFL 529): 87.3 µM (inactive) | GI50 (M14): > 100 µM (inactive) | GI50 (MOLT-4): 98.2 µM (inactive) | GI50 (Malme-3M): > 100 µM (inactive) | GI50 (NCI-H226): > 100 µM (inactive) | GI50 (NCI-H23): > 100 µM (inactive) | GI50 (NCI-H460): > 100 µM (inactive) | GI50 (NCI-H522): 67.9 µM (inactive) | GI50 (OVCAR-3): > 100 µM (inactive) | GI50 (OVCAR-5): > 100 µM (inactive) | GI50 (OVCAR-8): > 100 µM (inactive) | GI50 (RPMI-8226): > 100 µM (inactive) | GI50 (RXF 393): > 100 µM (inactive) | GI50 (SF-268): > 100 µM (inactive) | GI50 (SF-295): > 100 µM (inactive) | GI50 (SF-539): > 100 µM (inactive) | GI50 (SK-MEL-28): > 100 µM (inactive) | GI50 (SK-MEL-2): > 100 µM (inactive) | GI50 (SK-MEL-5): 77.6 µM (inactive) | GI50 (SK-OV-3): > 100 µM (inactive) | GI50 (SN12C): > 100 µM (inactive) | GI50 (SNB-19): > 100 µM (inactive) | GI50 (SNB-75): > 100 µM (inactive) | GI50 (SNB-78): 80.5 µM (inactive) | GI50 (SW-620): > 100 µM (inactive) | GI50 (TK-10): > 100 µM (inactive) | GI50 (U-251): > 100 µM (inactive) | GI50 (UACC-257): > 100 µM (inactive) | GI50 (UACC-62): > 100 µM (inactive) | GI50 (UO-31): 70.8 µM (inactive) | GI50 (XF498): > 100 µM (inactive)

COC(=O)c1c(OC(=O)c2ccccc2)noc1CC(=O)OC1C=CCCC1 (configuration not stated)
GI50 (786-0): > 100 µM (inactive) | GI50 (A498): 68.5 µM (inactive) | GI50 (A549): > 100 µM (inactive) | GI50 (ACHN): > 100 µM (inactive) | GI50 (CAKI-1): > 100 µM (inactive) | GI50 (CCRF-CEM): 80 µM (inactive) | GI50 (COLO 205): > 100 µM (inactive) | GI50 (DLD-1): > 100 µM (inactive) | GI50 (DMS-114): 38.5 µM (inactive) | GI50 (DMS-273): > 100 µM (inactive) | GI50 (HCC 2998): > 100 µM (inactive) | GI50 (HCT-116): > 100 µM (inactive) | GI50 (HCT-15): 86.1 µM | GI50 (HL-60): 35.1 µM (inactive) | GI50 (HOP-18): > 100 µM (inactive) | GI50 (HOP-62): > 100 µM (inactive) | GI50 (IGROV-1): > 100 µM (inactive) | GI50 (K562): 72.6 µM (inactive) | GI50 (KM-20L2): > 100 µM (inactive) | GI50 (KM12): > 100 µM (inactive) | GI50 (LXFL 529): 58.7 µM (inactive) | GI50 (M14): > 100 µM (inactive) | GI50 (MOLT-4): 25.5 µM (inactive) | GI50 (Malme-3M): > 100 µM (inactive) | GI50 (NCI-H226): > 100 µM (inactive) | GI50 (NCI-H460): > 100 µM (inactive) | GI50 (NCI-H522): 45.4 µM (inactive) | GI50 (OVCAR-3): > 100 µM (inactive) | GI50 (OVCAR-4): > 100 µM (inactive) | GI50 (OVCAR-8): > 100 µM (inactive) | GI50 (RPMI-8226): > 100 µM (inactive) | GI50 (RXF 393): 93.1 µM (inactive) | GI50 (SF-268): > 100 µM (inactive) | GI50 (SF-539): > 100 µM (inactive) | GI50 (SK-MEL-28): > 100 µM (inactive) | GI50 (SK-MEL-2): > 100 µM (inactive) | GI50 (SK-MEL-5): 27.5 µM (inactive) | GI50 (SK-OV-3): > 100 µM (inactive) | GI50 (SN12C): > 100 µM (inactive) | GI50 (SNB-19): > 100 µM (inactive) | GI50 (SNB-75): > 100 µM (inactive) | GI50 (SNB-78): > 100 µM (inactive) | GI50 (SR): > 100 µM (inactive) | GI50 (SW-620): > 100 µM (inactive) | GI50 (TK-10): > 100 µM (inactive) | GI50 (U-251): > 100 µM (inactive) | GI50 (UACC-257): 95.5 µM (inactive) | GI50 (UACC-62): 28.6 µM (inactive) | GI50 (UO-31): 66.4 µM (inactive)
